Our source for the inhibition and IC50 values is patent EP1322622B1, “NEW N, N'-DISUBSTITUTED BENZIMIDAZOLONE DERIVATIVES WITH AFFINITY AT THE SEROTONIN AND DOPAMINE RECEPTORS” (Sprout Pharmaceuticals, Inc., priority 2000, dated 2002).

Like-named read-outs stand apart in the source and are kept apart here.

Broadly, the IC50 is the midpoint of a concentration-inhibition curve.

Experiment [1] deals with T1, CHO/5-HT1A cells (Homo sapiens, UniProt P08908).
T1 construct: expressed in transfected cells; host or cells: CHO/5-HT1A cells
T1 sequence (P08908 1-422): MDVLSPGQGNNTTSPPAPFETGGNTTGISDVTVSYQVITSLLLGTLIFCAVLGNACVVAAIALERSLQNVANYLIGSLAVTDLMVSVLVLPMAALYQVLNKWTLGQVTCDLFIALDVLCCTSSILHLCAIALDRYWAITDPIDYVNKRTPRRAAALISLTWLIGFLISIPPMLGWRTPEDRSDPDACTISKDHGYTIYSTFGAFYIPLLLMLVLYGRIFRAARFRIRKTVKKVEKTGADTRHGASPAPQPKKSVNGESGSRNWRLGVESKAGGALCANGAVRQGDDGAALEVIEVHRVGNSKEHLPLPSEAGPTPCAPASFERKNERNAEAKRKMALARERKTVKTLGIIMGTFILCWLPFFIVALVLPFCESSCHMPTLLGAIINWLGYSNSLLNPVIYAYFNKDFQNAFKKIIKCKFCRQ
Description: 5-HT1A Functional assay (cAMP). Conditions: 10 µM compound; % inhibition of the cAMP accumulation induced by 10 µM FSK; read-out: 5-HT1A cAMP % inhib. It counts as cell-based. The procedure:
CHO/5-HT1A cells were random seeded at a density of about 200,000/well in 24 well plates the day prior to the experiment. On the day of the experiment, cells were pretreated for 15 min at 37 °C with 500 µM isobuthylmethylxantine (IBMX) dissolved in culture medium without serum. Wells were then divided in different groups in duplicate as follows: control, 10 µM FSK, 10 µM FSK + 1 µM 5-HT as positive standard and 10 µM FSK + 10 µM of the different compound under evaluation. Sample solutions were added and incubated for additional 15 min at 37 °C. After incubation, medium was aspirated and the reaction stopped by adding 200 µl of lysis buffer. Plates were shaken for 5 min, then the lysate was removed and samples were stored at 4 °C until the day of the assay. For the cAMP evaluation, samples were properly diluted and the cAMP content was measured by an enzymeimmunoassay system.
On the technique in general: Changes in cAMP serve as a functional read-out for many G protein-coupled receptors.

For experiment [2], the target named is T2, D4 human receptors (Homo sapiens, UniProt P21917).
T2 construct: expressed in transfected cells; host or cells: CHO cells
T2 sequence (P21917 1-419): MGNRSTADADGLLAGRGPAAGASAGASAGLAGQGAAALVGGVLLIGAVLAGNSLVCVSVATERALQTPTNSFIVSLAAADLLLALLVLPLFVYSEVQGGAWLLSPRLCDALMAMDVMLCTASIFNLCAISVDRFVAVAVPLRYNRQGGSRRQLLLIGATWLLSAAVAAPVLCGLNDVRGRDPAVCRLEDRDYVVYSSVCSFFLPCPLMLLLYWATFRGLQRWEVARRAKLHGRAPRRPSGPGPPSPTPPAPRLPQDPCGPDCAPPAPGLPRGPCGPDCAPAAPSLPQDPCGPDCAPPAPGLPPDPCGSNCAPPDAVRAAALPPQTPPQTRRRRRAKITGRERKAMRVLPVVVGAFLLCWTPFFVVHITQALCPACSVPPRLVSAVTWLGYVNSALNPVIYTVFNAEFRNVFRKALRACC
Description: D4 Radioligand Receptor Binding Assay ([3H] YM-09151-2, CHO cell membranes). Conditions: compound at 10^-7 M, singlicate; [3H] YM-09151-2 0.15-0.25 nM; read-out: D4 receptor binding assay % inhib. (10^-7 M). The procedure: Membranes from CHO cells, expressing D4 human receptors were suspended in incubation buffer.
Binding assays were performed in MultiProbe 204 pipetting system (Packard), according to a predetermined mapping, consistent with the software Screen. The compounds were tested in singlicate at one concentration (10^-7 M) in a total volume of 1000 µl (980 µl of diluted membranes, 10 µl DMSO or unlabelled ligand and 10 µl of [^3H] YM-09151-2 (0.15-0.25 nM). After incubation for 120 min at 27 °C, the reaction was stopped by rapid filtration through Tomtec cell Harvester (48 wells) using Filtermat B (presoaked in 0.1% PEI) filters. Filters were washed with ice-cold 50 mM Tris-HCl (pH 7.4) buffer (9 x 700 µl), dryed, covered with MeltiLex B/HS (Wallac) scintillator sheets and heated in oven at 80-90 °C for about 10 min, transferred into plastic sample bags (Wallac), sealed and put into 1024 Beta Plate scintillation counter (Wallac). Non specific binding was determined in the presence of clozapine dissolved in DMSO to a final concentration of 10^-5 M.
(§1) The specific radioligand binding to the receptor was defined by the difference between total binding and non specific binding, determined in the presence of an excess of unlabelled ligand. Results were expressed as percentage of control specific binding obtained in the presence of the compounds.

The target in experiment [3] is T3, 5-HT1A human receptors (Homo sapiens, UniProt P08908).
T3 construct: expressed in transfected cells; host or cells: CHO cells
T3 sequence (P08908 1-422): T1 sequence (P08908 1-422)
Nature of the experiment: 5-HT1A Radioligand Receptor Binding Assay ([3H]-8-OH-DPAT, CHO cell membranes). The settings on record: for inhibition at 0.1 µM: compound at 10^-7 M, singlicate, [3H]-8-OH-DPAT 0.6-0.7 nM, read-out: 5-HT1A receptor binding assay % inhib. (10^-7 M). Here is the method:
Membranes from CHO cells, expressing 5-HT1A human receptors were suspended in incubation buffer.
The compounds were tested in singlicate at one concentration (10^-7 M) in a total volume of 1000 µl. 980 µl of diluted membranes, 10 µl DMSO or unlabelled ligand and 10 µl of [^3H]-8-OH-DPAT (0.6-0.7 nM) were incubated for 60 min at 27 °C. The reaction was stopped by rapid filtration through Tomtec cell Harvester (48 wells) using Filtermat B (presoaked in 0.1% PEI) filters. […] Non specific binding was determined in the presence of 5-HT (10^-5 M).
as §1
The affinity values (IC50) for the compounds were obtained by a non linear least squares regression analysis on the basis of a one binding site model.

Setting [4] is: [3H]-8-OH-DPAT displacement, CHO membranes, read-out: 5-HT1A receptor binding IC50.

As to `COCCn1c(=O)n(CCCCN2CCN(c3cccc(Cl)c3)CC2)c2ccccc21` [compound 5], the inhibition at 10 µM in experiment [1] stood at 63%. The inhibition at 0.1 µM was 54% in experiment [2] and 92% in experiment [3]. Moreover, the IC50 in experiment [3] (setting [4]) worked out at 13 nM.

As to `Cc1cccc(N2CCN(CCCCn3c(=O)n(CCN4CCCCC4)c4ccccc43)CC2)c1C` [compound 37], the inhibition at 10 µM in experiment [1] was found to be 44%. In addition, the inhibition at 0.1 µM in experiment [2] came to 54%; in experiment [3] it was 90%. Moreover, the IC50 in experiment [3] (setting [4]) is 16 nM.

`O=c1n(CCO)c2ccccc2n1CCCCN1CCN(c2cccc(Cl)c2)CC1` [compound 60]: the inhibition at 10 µM in experiment [1] stood at 65%. For the same compound, the inhibition at 0.1 µM is 82% in experiment [2] and 93% in experiment [3]. Also, in experiment [3] (setting [4]), the IC50 amounted to 6.2 nM.

For `O=c1n(CCO)c2ccccc2n1CCCCN1CCN(c2cccc(C(F)(F)F)c2)CC1` [compound 64], the inhibition at 10 µM in experiment [1] came out at 52%. The inhibition at 0.1 µM in experiment [2] is 43%. Also, in experiment [3], the IC50 was determined as 12 nM and the inhibition at 0.1 µM came out at 92%.

Take `Cc1cccc(N2CCN(CCn3c(=O)n(CCN4CCCCC4)c4ccccc43)CC2)c1C` [compound 158]: the inhibition at 10 µM in experiment [1] came out at 48%. In addition, the inhibition at 0.1 µM in experiment [2] amounted to 72%; in experiment [3] it was 95%. In addition, in experiment [3] (setting [4]), the IC50 stood at 13 nM.

On to `COCCn1c(=O)n(CCN2CCN(c3cccc(Cl)c3)CC2)c2ccccc21` [compound 164], for which the inhibition at 10 µM in experiment [1] was 73%. For the same compound, the inhibition at 0.1 µM in experiment [2] turned out to be 41%; in experiment [3] it was 96%. For the same compound, in experiment [3] (setting [4]), the IC50 worked out at 4.2 nM.

In the case of `O=c1n(CCO)c2ccccc2n1CCN1CCN(c2cccc(C(F)(F)F)c2)CC1` [compound 187], the inhibition at 10 µM in experiment [1] was 44%. The inhibition at 0.1 µM in experiment [2] worked out at 36%; in experiment [3], 94%. The half-maximal inhibitory concentration (IC50) in experiment [3] (setting [4]) came to 8.2 nM.

Consider `CCNC(=O)OCCn1c(=O)n(CCN2CCN(c3ccccc3Cl)CC2)c2ccccc21` [compound 219], for which, in experiment [1], the inhibition at 10 µM stood at 61%. The inhibition at 0.1 µM in experiment [2] worked out at 37%; in experiment [3], 89%. The IC50 in experiment [3] (setting [4]) was determined as 15 nM.

As for `O=c1n(C/C=C\CN2CCN(c3ccccc3)CC2)c2ccccc2n1CCN1CCCCC1` [compound 310], the inhibition at 10 µM in experiment [1] came out at 63%. The inhibition at 0.1 µM stood at 49% in experiment [2] and 85% in experiment [3].

As for `O=c1n(C/C=C\CN2CCN(c3cccc(C(F)(F)F)c3)CC2)c2ccccc2n1CCN1CCCCC1` [compound 318], in experiment [1], the inhibition at 10 µM was found to be 61%. For the same compound, the inhibition at 0.1 µM in experiment [2] was 36%; in experiment [3] it was 92%.

Take `O=c1n(C/C=C/CN2CCN(c3ccccn3)CC2)c2ccccc2n1CCN1CCCCC1` [compound 330]: in experiment [1], the inhibition at 10 µM is 62%. Also, the inhibition at 0.1 µM in experiment [2] came to 84%; in experiment [3], 97%.

Consider `O=c1n(C/C=C/CN2CCc3c([nH]c4ccccc34)C2)c2ccccc2n1CCN1CCCCC1` [compound 333], for which the inhibition at 10 µM in experiment [1] worked out at 67%. Besides, the inhibition at 0.1 µM in experiment [2] came to 80%; in experiment [3], 99%.

Consider `O=c1n(C/C=C/CN2CCN(c3cccc(C(F)(F)F)c3)CC2)c2ccccc2n1CCN1CCCCC1` [compound 335], for which, in experiment [1], the inhibition at 10 µM turned out to be 69%. For the same compound, the inhibition at 0.1 µM was 55% in experiment [2] and 95% in experiment [3]. Also, the IC50 in experiment [3] (setting [4]) is 3.5 nM.

On to `O=c1n(C/C=C\CN2CCN(c3cccc(C(F)(F)F)c3)CC2)c2ccccc2n1CCO` [compound 369], for which the inhibition at 10 µM in experiment [1] amounted to 84%. Further, the inhibition at 0.1 µM in experiment [2] was 59%; in experiment [3] it was 96%.

On to `O=c1n(C/C=C\CN2CC=C(c3ccccc3)CC2)c2ccccc2n1CCO` [compound 370], for which the inhibition at 10 µM in experiment [1] is 52%. Also, the inhibition at 0.1 µM in experiment [2] was 60%; in experiment [3], 93%.

With `CCNC(=O)OCCn1c(=O)n(CC=CCN2CC=C(c3ccccc3)CC2)c2ccccc21` [compound 404], the inhibition at 10 µM in experiment [1] worked out at 60%. Besides, the inhibition at 0.1 µM came to 34% in experiment [2] and 95% in experiment [3].

`CCNC(=O)OCCn1c(=O)n(C/C=C/CN2CCN(c3cccc(Cl)c3)CC2)c2ccccc21` [compound 416]: in experiment [1], the inhibition at 10 µM turned out to be 77%. Further, the values for the inhibition at 0.1 µM in experiment [2] and in experiment [3] were 39% and 96%, respectively.

For `CC(=O)NCCn1c(=O)n(CCN2CCN(c3cccc(C)c3C)CC2)c2ccccc21` [compound 446], the inhibition at 10 µM in experiment [1] stood at 81%. Besides, the inhibition at 0.1 µM in experiment [2] came out at 31%; in experiment [3], 92%. Moreover, in experiment [3] (setting [4]), the IC50 came to 7.3 nM.

In the case of `CC(=O)NCCn1c(=O)n(C/C=C\CN2CCN(c3cccc(C)c3C)CC2)c2ccccc21` [compound 468], the inhibition at 10 µM in experiment [1] came to 66%. Moreover, in experiment [3] (setting [4]), the IC50 is 3.1 nM.

For the compound `CS(=O)(=O)NCCn1c(=O)n(C/C=C\CN2CC=C(c3ccccc3)CC2)c2ccccc21` [compound 504], the inhibition at 10 µM in experiment [1] is 50%. In addition, the inhibition at 0.1 µM is 34% in experiment [2] and 93% in experiment [3].

For the compound `Cc1cccc(N2CCN(C/C=C/Cn3c(=O)n(CCNS(C)(=O)=O)c4ccccc43)CC2)c1` [compound 536], the inhibition at 10 µM in experiment [1] was 55%. Besides, in experiment [3] (setting [4]), the IC50 turned out to be 9.5 nM.
